Read-outs that look alike come from different tables or passages of the source.
How the values were obtained:
MST3(h) = MST3(h) (Homo sapiens (Human), UniProt Q9Y6E0); experiment: Kinase Profiler 10 μM panel
MYLK2(h) = MYLK2(h) (Homo sapiens (Human), UniProt Q9H1R3); experiment: Kinase Profiler 10 μM panel
Protocol: (§1) In vitro kinase assays were conducted using Kinase Profiler services provided by Eurofins. The experimental method was as follows: the small molecule compound to be tested (0.001-10 μM), the protein kinase to be tested were incubated with a buffer containing substrate, 10 mM magnesium acetate, and [γ-^33P-ATP], the reaction was started by adding Mg\TPmix, after incubation for a period of time at room temperature, a 3% phosphate solution was added to the buffer to stop the reaction. Subsequently, 10 μL of the reaction mixture was quantitatively pipetted onto P30 filter paper, which was washed three times with 75 mM phosphate solution and then once with methanol. The P30 filter paper was air-dried and scintillation fluid was added for scintillation counting.

NLK(h) = NLK(h) (Homo sapiens (Human), UniProt Q9UBE8); experiment: Kinase Profiler 10 μM panel
Protocol: as §1

HIPK1(h) = HIPK1(h) (Homo sapiens (Human), UniProt Q86Z02); experiment: Kinase Profiler 10 μM panel
Sequence of HIPK1(h) (Q86Z02 whole entry): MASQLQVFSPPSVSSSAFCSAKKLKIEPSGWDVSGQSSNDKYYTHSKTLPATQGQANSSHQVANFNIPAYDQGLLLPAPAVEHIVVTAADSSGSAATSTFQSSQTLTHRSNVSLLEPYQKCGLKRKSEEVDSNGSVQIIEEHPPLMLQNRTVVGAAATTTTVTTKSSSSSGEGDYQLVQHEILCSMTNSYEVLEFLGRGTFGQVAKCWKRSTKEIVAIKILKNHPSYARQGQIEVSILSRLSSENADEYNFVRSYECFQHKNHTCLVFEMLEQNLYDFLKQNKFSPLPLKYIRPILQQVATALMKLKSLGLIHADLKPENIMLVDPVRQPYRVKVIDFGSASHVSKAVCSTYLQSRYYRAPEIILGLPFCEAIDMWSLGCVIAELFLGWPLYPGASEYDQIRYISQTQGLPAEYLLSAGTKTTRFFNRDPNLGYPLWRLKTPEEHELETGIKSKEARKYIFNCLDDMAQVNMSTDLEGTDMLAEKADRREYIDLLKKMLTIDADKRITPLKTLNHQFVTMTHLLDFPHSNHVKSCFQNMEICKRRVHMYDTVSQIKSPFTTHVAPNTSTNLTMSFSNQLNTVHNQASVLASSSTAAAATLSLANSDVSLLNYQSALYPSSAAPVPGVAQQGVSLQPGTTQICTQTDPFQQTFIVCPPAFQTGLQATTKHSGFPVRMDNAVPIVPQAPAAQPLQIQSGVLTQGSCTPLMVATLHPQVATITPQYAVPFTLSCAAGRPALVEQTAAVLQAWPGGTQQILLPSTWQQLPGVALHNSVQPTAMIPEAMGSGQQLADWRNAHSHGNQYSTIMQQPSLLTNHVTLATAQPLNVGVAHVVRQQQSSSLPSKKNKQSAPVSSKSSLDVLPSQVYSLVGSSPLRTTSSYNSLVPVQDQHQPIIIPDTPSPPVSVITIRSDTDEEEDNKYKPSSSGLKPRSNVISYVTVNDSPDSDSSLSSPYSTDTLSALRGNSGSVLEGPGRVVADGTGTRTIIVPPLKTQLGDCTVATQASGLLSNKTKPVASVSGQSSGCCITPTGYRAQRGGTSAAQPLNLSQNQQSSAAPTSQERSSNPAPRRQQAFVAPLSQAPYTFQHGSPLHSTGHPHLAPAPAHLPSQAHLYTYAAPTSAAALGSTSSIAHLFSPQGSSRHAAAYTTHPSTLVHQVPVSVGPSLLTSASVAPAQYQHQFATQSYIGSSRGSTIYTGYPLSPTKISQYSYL
Protocol: as §1

MLK1(h) = MLK1(h) (Homo sapiens (Human), UniProt P80192); experiment: Kinase Profiler 10 μM panel
Protocol: as §1

PKCι(h) = PKCι(h) (Homo sapiens (Human), UniProt P41743); experiment: Kinase Profiler 10 μM panel
Protocol: as §1

TGFBR1(h) = TGFBR1(h) (Homo sapiens (Human), UniProt P36897); experiment: Kinase Profiler 10 μM panel
Protocol: as §1

EphA3(h) = EphA3(h) (Homo sapiens (Human), UniProt P29320); experiment: Kinase Profiler 10 μM panel
Protocol: as §1

MST4(h) = MST4(h) (Homo sapiens (Human), UniProt Q9P289); experiment: Kinase Profiler 10 μM panel
HT-29 cells = experiment: Protection against programmed necrosis of HT-29 cells (TNF α/Smac mimetic/Z-VAD-FMK, CCK8); assay type: cell-based; settings: Homo sapiens
EphA5(h) = EphA5(h) (Homo sapiens (Human), UniProt P54756); experiment: Kinase Profiler 10 μM panel
Protocol: as §1

CDK5/p25(h) = CDK5/p25(h) (Homo sapiens (Human), UniProt Q00535); experiment: Kinase Profiler 10 μM panel
Protocol: as §1

BRK(h) = BRK(h) (Homo sapiens (Human), UniProt Q13882); experiment: Kinase Profiler 10 μM panel
Protocol: as §1

SLK(h) = SLK(h) (Homo sapiens (Human), UniProt Q9H2G2); experiment: Kinase Profiler 10 μM panel
Protocol: as §1

ROCK-II(r) = ROCK-II(r) (Rattus norvegicus (Rat), UniProt Q62868); experiment: Kinase Profiler 10 μM panel
Protocol: as §1

TRB2(h) = TRB2(h) (Homo sapiens (Human), UniProt Q92519); experiment: Kinase Profiler 10 μM panel
Sequence of TRB2(h) (Q92519 whole entry): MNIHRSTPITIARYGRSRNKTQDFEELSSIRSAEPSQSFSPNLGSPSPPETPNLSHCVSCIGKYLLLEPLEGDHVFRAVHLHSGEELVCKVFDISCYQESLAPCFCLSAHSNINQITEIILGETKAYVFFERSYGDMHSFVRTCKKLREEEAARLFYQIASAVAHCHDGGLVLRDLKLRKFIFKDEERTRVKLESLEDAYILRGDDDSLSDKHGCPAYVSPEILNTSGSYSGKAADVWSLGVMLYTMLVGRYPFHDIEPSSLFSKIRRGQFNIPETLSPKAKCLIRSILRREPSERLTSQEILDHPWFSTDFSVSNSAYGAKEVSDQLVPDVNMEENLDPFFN
Protocol: as §1

SIK3(h) = SIK3(h) (Homo sapiens (Human), UniProt Q9Y2K2); experiment: Kinase Profiler 10 μM panel
Protocol: as §1

MSSK1(h) = MSSK1(h) (Homo sapiens (Human), UniProt Q9UPE1); experiment: Kinase Profiler 10 μM panel
Protocol: as §1

ALK2(h) = ALK2(h) (Homo sapiens (Human), UniProt Q04771); experiment: Kinase Profiler 10 μM panel
Protocol: as §1

Plk1(h) = Plk1(h) (Homo sapiens (Human), UniProt P53350); experiment: Kinase Profiler 10 μM panel
Sequence of Plk1(h) (P53350 whole entry): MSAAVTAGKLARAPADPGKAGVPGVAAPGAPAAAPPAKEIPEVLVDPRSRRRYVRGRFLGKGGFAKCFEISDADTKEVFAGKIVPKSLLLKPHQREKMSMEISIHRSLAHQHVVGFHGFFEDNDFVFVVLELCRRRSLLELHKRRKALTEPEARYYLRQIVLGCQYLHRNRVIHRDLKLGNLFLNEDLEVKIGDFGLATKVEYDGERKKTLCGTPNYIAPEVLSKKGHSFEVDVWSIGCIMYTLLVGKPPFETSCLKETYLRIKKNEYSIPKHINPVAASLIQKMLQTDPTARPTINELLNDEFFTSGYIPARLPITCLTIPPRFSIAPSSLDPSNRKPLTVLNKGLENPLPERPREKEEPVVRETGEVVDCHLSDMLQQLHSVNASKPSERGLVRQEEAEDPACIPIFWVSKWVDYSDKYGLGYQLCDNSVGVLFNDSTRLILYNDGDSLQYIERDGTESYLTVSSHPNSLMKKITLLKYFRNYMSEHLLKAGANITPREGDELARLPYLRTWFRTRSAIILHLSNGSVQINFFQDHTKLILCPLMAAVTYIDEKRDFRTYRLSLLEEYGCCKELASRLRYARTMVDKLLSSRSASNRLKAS
Protocol: as §1

EphA1(h) = EphA1(h) (Homo sapiens (Human), UniProt P21709); experiment: Kinase Profiler 10 μM panel
Sequence of EphA1(h) (P21709 26-976): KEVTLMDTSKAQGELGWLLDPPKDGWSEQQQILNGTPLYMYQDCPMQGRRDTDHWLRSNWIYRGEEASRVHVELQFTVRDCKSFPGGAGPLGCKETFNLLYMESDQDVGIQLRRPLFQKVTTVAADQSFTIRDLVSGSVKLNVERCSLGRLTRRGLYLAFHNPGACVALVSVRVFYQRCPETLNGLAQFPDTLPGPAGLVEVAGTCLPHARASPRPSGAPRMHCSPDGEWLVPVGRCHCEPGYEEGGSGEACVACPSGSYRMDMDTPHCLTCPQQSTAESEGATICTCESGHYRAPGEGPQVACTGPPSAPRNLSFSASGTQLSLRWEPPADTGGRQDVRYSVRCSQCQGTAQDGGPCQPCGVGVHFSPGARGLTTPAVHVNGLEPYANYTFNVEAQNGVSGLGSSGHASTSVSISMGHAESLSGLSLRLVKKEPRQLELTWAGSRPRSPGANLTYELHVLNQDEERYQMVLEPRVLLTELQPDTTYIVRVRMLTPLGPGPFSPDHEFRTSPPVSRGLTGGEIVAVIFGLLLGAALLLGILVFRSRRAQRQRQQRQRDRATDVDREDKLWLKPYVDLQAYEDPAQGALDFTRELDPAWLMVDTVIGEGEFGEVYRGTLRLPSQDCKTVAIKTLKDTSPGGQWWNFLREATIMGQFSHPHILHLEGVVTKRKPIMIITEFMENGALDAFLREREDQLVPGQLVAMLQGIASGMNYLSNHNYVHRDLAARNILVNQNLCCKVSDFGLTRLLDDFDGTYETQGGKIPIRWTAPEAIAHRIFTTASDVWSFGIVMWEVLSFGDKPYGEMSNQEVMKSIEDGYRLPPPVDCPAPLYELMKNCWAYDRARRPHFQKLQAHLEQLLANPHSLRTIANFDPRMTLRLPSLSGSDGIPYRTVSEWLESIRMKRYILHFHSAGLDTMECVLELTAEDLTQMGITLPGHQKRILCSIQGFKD
Protocol: as §1

PKCϵ(h) = PKCϵ(h) (Homo sapiens (Human), UniProt Q02156); experiment: Kinase Profiler 10 μM panel
Protocol: as §1

AMPKα1(h) = AMPKα1(h) (Homo sapiens (Human), UniProt Q13131); experiment: Kinase Profiler 10 μM panel
Protocol: as §1

Fes(h) = Fes(h) (Homo sapiens (Human), UniProt P07332); experiment: Kinase Profiler 10 μM panel
Protocol: as §1

PAK6(h) = PAK6(h) (Homo sapiens (Human), UniProt Q9NQU5); experiment: Kinase Profiler 10 μM panel
Protocol: as §1

[1] = molecular target: PI3 Kinase (p110b/p85a)(h) (Homo sapiens (Human), UniProt P42338); experiment: Kinase Profiler 10 μM panel
Protocol: as §1

B-Raf(h) = B-Raf(h) (Homo sapiens (Human), UniProt P15056); experiment: Kinase Profiler 10 μM panel
Protocol: as §1

ROCK-II(h) = ROCK-II(h) (Homo sapiens (Human), UniProt O75116); experiment: Kinase Profiler 10 μM panel
Sequence of ROCK-II(h) (O75116 whole entry): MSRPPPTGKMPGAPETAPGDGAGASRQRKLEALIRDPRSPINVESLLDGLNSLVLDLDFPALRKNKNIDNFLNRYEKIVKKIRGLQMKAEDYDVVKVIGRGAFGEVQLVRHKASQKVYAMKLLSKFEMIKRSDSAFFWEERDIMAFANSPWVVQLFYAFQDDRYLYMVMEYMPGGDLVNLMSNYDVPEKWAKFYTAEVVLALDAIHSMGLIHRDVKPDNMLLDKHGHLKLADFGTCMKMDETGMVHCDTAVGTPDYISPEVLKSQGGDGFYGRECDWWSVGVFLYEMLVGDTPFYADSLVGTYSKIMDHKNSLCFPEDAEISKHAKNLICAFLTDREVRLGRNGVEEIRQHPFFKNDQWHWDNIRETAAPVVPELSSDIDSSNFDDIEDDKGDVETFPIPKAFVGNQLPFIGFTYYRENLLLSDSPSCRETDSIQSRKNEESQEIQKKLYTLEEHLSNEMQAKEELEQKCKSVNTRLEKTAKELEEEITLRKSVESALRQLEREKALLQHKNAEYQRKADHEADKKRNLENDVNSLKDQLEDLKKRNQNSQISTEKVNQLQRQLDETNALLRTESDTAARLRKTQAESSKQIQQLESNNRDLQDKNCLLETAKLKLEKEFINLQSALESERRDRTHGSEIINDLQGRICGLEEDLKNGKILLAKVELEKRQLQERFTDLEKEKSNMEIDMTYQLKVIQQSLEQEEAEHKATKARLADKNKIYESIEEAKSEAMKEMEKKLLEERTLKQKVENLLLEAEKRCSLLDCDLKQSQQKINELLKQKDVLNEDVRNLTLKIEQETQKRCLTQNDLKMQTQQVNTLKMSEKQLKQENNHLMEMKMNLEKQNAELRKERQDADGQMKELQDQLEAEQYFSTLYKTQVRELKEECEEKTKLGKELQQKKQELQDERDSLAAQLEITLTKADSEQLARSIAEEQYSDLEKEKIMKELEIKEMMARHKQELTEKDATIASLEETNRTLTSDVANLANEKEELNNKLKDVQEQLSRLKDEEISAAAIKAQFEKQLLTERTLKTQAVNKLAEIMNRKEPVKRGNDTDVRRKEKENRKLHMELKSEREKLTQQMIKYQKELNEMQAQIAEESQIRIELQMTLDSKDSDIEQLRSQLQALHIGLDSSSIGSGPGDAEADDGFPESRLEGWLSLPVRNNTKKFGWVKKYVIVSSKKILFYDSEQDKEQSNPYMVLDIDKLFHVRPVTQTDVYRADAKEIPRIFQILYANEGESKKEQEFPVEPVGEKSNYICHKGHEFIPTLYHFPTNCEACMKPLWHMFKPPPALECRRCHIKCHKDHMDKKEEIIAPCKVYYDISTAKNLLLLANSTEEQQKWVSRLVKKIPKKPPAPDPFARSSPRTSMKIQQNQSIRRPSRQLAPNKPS
Protocol: as §1

[2] = TNF α/Smac mimetic/Z-VAD-FMK induced 24 h, CCK8, read-out: HT-29 (EC50)
[3] = TSZ-induced, FIG. 3, read-out: EC50 value, programmed necrosis model of HT-29

Sequence of NLK(h) (Q9UBE8 whole entry): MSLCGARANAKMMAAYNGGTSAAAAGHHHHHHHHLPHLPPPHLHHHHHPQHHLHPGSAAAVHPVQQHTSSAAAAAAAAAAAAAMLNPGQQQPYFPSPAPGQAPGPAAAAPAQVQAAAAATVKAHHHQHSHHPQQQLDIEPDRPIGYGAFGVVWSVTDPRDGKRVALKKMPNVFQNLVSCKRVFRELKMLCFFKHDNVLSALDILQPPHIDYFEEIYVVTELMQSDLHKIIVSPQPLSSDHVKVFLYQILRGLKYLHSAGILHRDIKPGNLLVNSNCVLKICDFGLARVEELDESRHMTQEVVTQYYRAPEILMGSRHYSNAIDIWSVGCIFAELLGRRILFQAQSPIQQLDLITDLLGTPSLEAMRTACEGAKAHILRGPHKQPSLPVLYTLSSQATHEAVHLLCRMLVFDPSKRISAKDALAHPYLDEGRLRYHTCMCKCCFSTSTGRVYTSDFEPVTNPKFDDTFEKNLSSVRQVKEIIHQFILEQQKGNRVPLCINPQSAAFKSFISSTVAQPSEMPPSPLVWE

C[C@H](NC(=O)c1c[nH]c2ccc(-c3ccc4nc(NC(=O)C5CC5)sc4c3)cc12)c1cccc(F)c1 [Compound 34, (S)-5-(2-(cyclopropanecarboxamido)benzo[d]thiazol-6-yl)-N-(1-(3-fluorophenyl)ethyl)-1H-indole-3-carboxamide]
Inhibition ratio (MST3(h)): 7%
Inhibition ratio (MYLK2(h)): 55%
Inhibition ratio (NLK(h)): 25%
Inhibition ratio (HIPK1(h)): 68%
Inhibition ratio (MLK1(h)): 98%
Inhibition ratio (PKCι(h)): −4%
Inhibition ratio (TGFBR1(h)): 7%
Inhibition ratio (EphA3(h)): −8%
Inhibition ratio (MST4(h)): 11%
EC50 (HT-29 cells; [2]): < 1 nM
EC50 (HT-29 cells; [3]): 0.117 nM
Inhibition ratio (EphA5(h)): 40%
Inhibition ratio (CDK5/p25(h)): 16%
Inhibition ratio (BRK(h)): 4%
Inhibition ratio (SLK(h)): 50%
Inhibition ratio (ROCK-II(r)): 12%
Inhibition ratio (TRB2(h)): 65%
Inhibition ratio (SIK3(h)): 23%
Inhibition ratio (MSSK1(h)): 24%
Inhibition ratio (ALK2(h)): 64%
Inhibition ratio (Plk1(h)): 8%
Inhibition ratio (EphA1(h)): 3%
Inhibition ratio (PKCϵ(h)): −8%
Inhibition ratio (AMPKα1(h)): 4%
Inhibition ratio (Fes(h)): 26%
Inhibition ratio (PAK6(h)): −14%
Inhibition ratio [1]: 16%
Inhibition ratio (B-Raf(h)): 20%
Inhibition ratio (ROCK-II(h)): 11%

C[C@H](NC(=O)c1cn(C)c2ccc(-c3ccn4nc(NC(=O)C5CC5)nc4c3)cc12)c1cccc(F)c1 [Compound 94, (S)-5-(2-(cyclopropanecarboxamido)-[1,2,4]triazolo[1,5-a]pyridin-7-yl)-N-(1-(3-fluorophenyl)ethyl)-1-methyl-1H-indole-3-carboxamide]
Inhibition ratio/% (MST3(h)): 33%
Inhibition ratio/% (MYLK2(h)): −8%
Inhibition ratio/% (NLK(h)): 16%
Inhibition ratio/% (HIPK1(h)): 48%
Inhibition ratio/% (MLK1(h)): 94%
Inhibition ratio/% (PKCι(h)): 54%
Inhibition ratio/% (TGFBR1(h)): −3%
Inhibition ratio/% (EphA3(h)): 6%
Inhibition ratio/% (MST4(h)): 12%
EC50 (HT-29 cells; [2]): < 1 nM
EC50 (HT-29 cells; [3]): 0.012 nM
Inhibition ratio/% (EphA5(h)): 4%
Inhibition ratio/% (CDK5/p25(h)): 46%
Inhibition ratio/% (BRK(h)): 47%
Inhibition ratio/% (SLK(h)): 15%
Inhibition ratio/% (ROCK-II(r)): 52%
Inhibition ratio/% (TRB2(h)): −5%
Inhibition ratio/% (SIK3(h)): 47%
Inhibition ratio/% (MSSK1(h)): −12%
Inhibition ratio/% (ALK2(h)): −17%
Inhibition ratio/% (Plk1(h)): 26%
Inhibition ratio/% (EphA1(h)): −12%
Inhibition ratio/% (PKCϵ(h)): 35%
Inhibition ratio/% (AMPKα1(h)): 57%
Inhibition ratio/% (Fes(h)): 54%
Inhibition ratio/% (PAK6(h)): 49%
Inhibition ratio/% [1]: −7%
Inhibition ratio/% (B-Raf(h)): −5%
Inhibition ratio/% (ROCK-II(h)): 7%

Reference: US20230365546A1, “5-SUBSTITUTED INDOLE 3-AMIDE DERIVATIVES, PREPARATION METHOD AND USE THEREOF” (ORIGIANT PHARMACEUTICAL CO., LTD, priority 2020, published 2023)
